≈ marks a conversion by molar mass, not a printed value.

The test relates to herpes simplex virus type 2. The test can be described thus: in vitro antiviral testing against herpes simplex virus type 2 (MIC by standard serial dilution). The settings on record: Human alphaherpesvirus 2, herpes simplex virus type 2 (herpes 2), read-out: minimal inhibitory concentration (MIC). It counts as cell-based. The method, then:
They are useful in combatting viruses present on inanimate surfaces as well as viral infections in animal organisms. […] The MIC values were determined by standard serial dilution procedures.

Regarding `CCc1noc(CC)c1CCCCCCOc1ccc(Br)cc1` [Example 6, 4-[6-(4-Bromophenoxy)hexyl]-3,5-diethylisoxazole], the MIC came to 12 µg/mL (≈ 31.6 µM). Consider `CCc1noc(CC)c1Cc1ccc(OC)cc1Cl` [Example 4, 4-[(2-Chloro-4-methoxyphenyl)methyl]-3,5-diethylisoxazole], for which the MIC amounted to 12 µg/mL (≈ 42.9 µM). In the case of `CCc1noc(CC)c1Cc1ccc(C)cc1` [Example 2, 3,5-Diethyl-4-[(4-methylphenyl)methyl]isoxazole], the MIC was found to be 1.5 µg/mL (≈ 6.54 µM).

On to `CCc1noc(CC)c1CCCCOc1ccc(OC)cc1Cl` [Example 7, 4-[4-(2-Chloro-4-methoxyphenoxy)butyl]-3,5-diethylisoxazole], for which the MIC was found to be 6 µg/mL (≈ 17.8 µM).

For the compound `CCc1noc(CC)c1Cc1ccc(OC)cc1` [Example 3, 3,5-Diethyl-4-[(4-methoxyphenyl)methyl]isoxazole], the MIC worked out at 25 µg/mL (≈ 102 µM). As for `CCc1noc(CC)c1CCCCCCCOc1ccc(OC)cc1Cl` [Example 8, 4-[7-(2-Chloro-4-methoxyphenoxy)heptyl]-3,5-diethylisoxazole], the MIC was above 25 µg/mL. With `CCc1noc(CC)c1CCCCCCOc1ccc(OC)cc1Cl` [Example 1, 4-[6-(2-Chloro-4-methoxyphenoxy)hexyl]-3,5-diethylisoxazole] the figure was 6 µg/mL (≈ 16.4 µM); with `CCc1noc(CC)c1CCCCCCOc1ccc(OC)cc1[N+](=O)[O-]` [Example 5, 3,5-Diethyl-4-[6-(4-methoxy-2-nitrophenoxy)hexyl]isoxazole], 3 µg/mL (≈ 7.97 µM).

For the origin of these results see patent US4268678A, “4-(Arylaliphatic)isoxazoles” (Sterling Drug Inc., priority 1979, dated 1981).
